According to PubChem BioAssay AID248 (DTP/NCI, 2004):
Where “and” joins values, the source holds several entries; their conditions need not be identical. Equal values may be shown once. Toxic doses and inconclusive results are not listed. Rule as the data show it: active = T/C of 150% or more; inactive = T/C below 125%.

Tested on: L1210 leukemia ip in BDF1 mice, survival T/C
Test: NCI In Vivo Anticancer Drug Screen. Data for tumor model L1210 Leukemia (intraperitoneal) in B6D2F1 (BDF1) mice
Conditions: endpoint: mean survival time, higher = longer survival
How it was run: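 Survival endpoint. Drug-treated group vs vehicle group, expressed as T divided by C. Tumor passaged by transplantation.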

[1] = dose: 10.0 mg/kg/injection, schedule: Q01DX001 (ip), vehicle: saline
[2] = dose: 20.0 mg/kg/injection, schedule: Q01DX001 (ip), vehicle: saline
[3] = dose: 40.0 mg/kg/injection, schedule: Q01DX001 (ip), vehicle: saline
[4] = dose: 80.0 mg/kg/injection, schedule: Q01DX001 (ip), vehicle: saline
[5] = dose: 100.0 mg/kg/injection, schedule: Q01DX001 (ip), vehicle: carboxymethylcellulose (CMC)
[6] = dose: 200.0 mg/kg/injection, schedule: Q01DX001 (ip), vehicle: carboxymethylcellulose (CMC)
[7] = dose: 400.0 mg/kg/injection, schedule: Q01DX001 (ip), vehicle: carboxymethylcellulose (CMC)
[8] = dose: 100.0 mg/kg/injection, schedule: Q04DX003 (ip), vehicle: saline with Tween-80
[9] = dose: 200.0 mg/kg/injection, schedule: Q04DX003 (ip), vehicle: saline with Tween-80
[10] = dose: 400.0 mg/kg/injection, schedule: Q04DX003 (ip), vehicle: saline with Tween-80
[11] = dose: 50.0 mg/kg/injection, schedule: Q01DX001 (ip), vehicle: saline
[12] = dose: 100.0 mg/kg/injection, schedule: Q01DX001 (ip), vehicle: saline
[13] = dose: 200.0 mg/kg/injection, schedule: Q01DX001 (ip), vehicle: saline
[14] = dose: 400.0 mg/kg/injection, schedule: Q01DX001 (ip), vehicle: saline
[15] = dose: 50.0 mg/kg/injection, schedule: Q01DX009 (ip), vehicle: Klucel (hydroxypropylcellulose) (HPC)
[16] = dose: 100.0 mg/kg/injection, schedule: Q01DX009 (ip), vehicle: Klucel (hydroxypropylcellulose) (HPC)
[17] = dose: 100.0 mg/kg/injection, schedule: Q04DX003 (ip), vehicle: Klucel (hydroxypropylcellulose) (HPC)
[18] = dose: 200.0 mg/kg/injection, schedule: Q01DX009 (ip), vehicle: Klucel (hydroxypropylcellulose) (HPC)
[19] = dose: 200.0 mg/kg/injection, schedule: Q04DX003 (ip), vehicle: Klucel (hydroxypropylcellulose) (HPC)
[20] = dose: 100.0 mg/kg/injection, schedule: Q01DX001 (ip), vehicle: Klucel (hydroxypropylcellulose) (HPC)
[21] = dose: 100.0 mg/kg/injection, schedule: Q04DX002 (ip), vehicle: saline with Tween-80
[22] = dose: 200.0 mg/kg/injection, schedule: Q04DX002 (ip), vehicle: saline with Tween-80
[23] = dose: 400.0 mg/kg/injection, schedule: Q04DX002 (ip), vehicle: saline with Tween-80
[24] = dose: 50.0 mg/kg/injection, schedule: Q01DX009 (ip), vehicle: saline with Tween-80
[25] = dose: 100.0 mg/kg/injection, schedule: Q01DX009 (ip), vehicle: saline with Tween-80

Measured: T/C

CCN(CC)c1ccc(N=Nc2c(C)nc(N)nc2-c2ccccc2)cc1
inactive: dose: 5.0 mg/kg/injection, schedule: Q01DX001 (ip), vehicle: saline 103 % of control | [1] 96 % of control | [2] 91 % of control | [3] 92 % of control | [4] 87 % of control

COc1cc2c(cc1OC)CN1CCC(=O)CC1C2 (stereo unspecified)
inactive: dose: 100.0 mg/kg/injection, schedule: Q01DX001 (ip), vehicle: saline with Tween-80 107 % of control | dose: 200.0 mg/kg/injection, schedule: Q01DX001 (ip), vehicle: saline with Tween-80 102 % of control | dose: 400.0 mg/kg/injection, schedule: Q01DX001 (ip), vehicle: saline with Tween-80 106 % of control

CSc1cc2c(c(SC)c1[N+](=O)[O-])C(=O)c1ccccc1-2
inactive: [5] 102 % of control | [6] 98 % of control | [7] 102 % of control

Cc1ccc(C(=O)N(N)C2CCCCC2)cc1
inactive: [8] 95 % of control | [9] 93 % of control | [10] 96 % of control

Nc1cc(S(=O)(=O)O)cc2cc(S(=O)(=O)O)cc(O)c12
inactive: dose: 50.0 mg/kg/injection, schedule: Q04DX002 (ip), vehicle: saline 92 % of control | dose: 100.0 mg/kg/injection, schedule: Q04DX002 (ip), vehicle: saline 100 % of control and 118 % of control | dose: 200.0 mg/kg/injection, schedule: Q04DX002 (ip), vehicle: saline 92 % of control | dose: 400.0 mg/kg/injection, schedule: Q04DX002 (ip), vehicle: saline 122 % of control and 92 % of control

COc1ccc(NC(=O)NNC(=O)CCCC(=O)NNC(=O)Nc2ccc(OC)cc2)cc1
inactive: [11] 112 % of control | [12] 102 % of control | [13] 93 % of control | [14] 93 % of control

O=C(Nc1ccccc1F)Nc1ccccc1Cl
inactive: dose: 25.0 mg/kg/injection, schedule: Q01DX009 (ip), vehicle: Klucel (hydroxypropylcellulose) (HPC) 95 % of control | [15] 104 % of control | [16] 96 % of control | [17] 87 % of control | [18] 93 % of control and 92 % of control | [19] 89 % of control | dose: 400.0 mg/kg/injection, schedule: Q01DX009 (ip), vehicle: Klucel (hydroxypropylcellulose) (HPC) 95 % of control and 91 % of control

CN1CCN(C(=S)Nc2ccccc2)CC1
inactive: dose: 25.0 mg/kg/injection, schedule: Q01DX001 (ip), vehicle: Klucel (hydroxypropylcellulose) (HPC) 98 % of control | dose: 50.0 mg/kg/injection, schedule: Q01DX001 (ip), vehicle: Klucel (hydroxypropylcellulose) (HPC) 106 % of control | [20] 97 % of control and 107 % of control

COc1c2c(c(OC)c3c1c(=O)c1ccccc1n3C)OCO2
inactive: [5] 102 % of control | [6] 98 % of control | dose: 300.0 mg/kg/injection, schedule: Q01DX001 (ip), vehicle: carboxymethylcellulose (CMC) 102 % of control | [7] 96 % of control | dose: 500.0 mg/kg/injection, schedule: Q01DX001 (ip), vehicle: carboxymethylcellulose (CMC) 93 % of control

Br/C1=C/CCCCCC1
inactive: dose: 75.0 mg/kg/injection, schedule: Q04DX003 (ip), vehicle: saline 102 % of control | dose: 150.0 mg/kg/injection, schedule: Q04DX003 (ip), vehicle: saline 96 % of control

O=C1NC2c3ccccc3CCC12 (stereo unspecified)
inactive: [21] 102 % of control | [22] 100 % of control | [23] 96 % of control

COC(=O)CSc1ncc2cnccn12
inactive: dose: 100.0 mg/kg/injection, schedule: Q01DX009 (ip), vehicle: water 105 % of control | dose: 100.0 mg/kg/injection, schedule: Q04DX003 (ip), vehicle: water 119 % of control | dose: 200.0 mg/kg/injection, schedule: Q01DX009 (ip), vehicle: water 98 % of control | dose: 200.0 mg/kg/injection, schedule: Q04DX003 (ip), vehicle: water 98 % of control | dose: 400.0 mg/kg/injection, schedule: Q01DX009 (ip), vehicle: water 98 % of control | dose: 400.0 mg/kg/injection, schedule: Q04DX003 (ip), vehicle: water 104 % of control

Nc1c(F)c(F)c(-c2c(F)c(F)c(N)c(F)c2F)c(F)c1F
inactive: dose: 37.5 mg/kg/injection, schedule: Q04DX003 (ip), vehicle: saline with Tween-80 98 % of control | dose: 75.0 mg/kg/injection, schedule: Q04DX003 (ip), vehicle: saline with Tween-80 102 % of control | dose: 150.0 mg/kg/injection, schedule: Q04DX003 (ip), vehicle: saline with Tween-80 95 % of control

[Cl][Hg][Cl].c1ccc(CSc2ccccc2)cc1
inactive: dose: 5.0 mg/kg/injection, schedule: Q01DX001 (ip), vehicle: carboxymethylcellulose (CMC) 105 % of control

OC1CCCCCC2CC12 (stereo unspecified)
inactive: dose: 25.0 mg/kg/injection, schedule: Q01DX005 (ip), vehicle: saline with Tween-80 86 % of control | dose: 25.0 mg/kg/injection, schedule: Q01DX009 (ip), vehicle: saline with Tween-80 98 % of control | dose: 50.0 mg/kg/injection, schedule: Q01DX005 (ip), vehicle: saline with Tween-80 101 % of control | [24] 91 % of control | dose: 100.0 mg/kg/injection, schedule: Q01DX005 (ip), vehicle: saline with Tween-80 89 % of control and 90 % of control | [25] 91 % of control

O=c1[nH]c(=O)n(CCCOc2ccccc2)cc1CCc1ccccc1
inactive: [20] 91 % of control | dose: 200.0 mg/kg/injection, schedule: Q01DX001 (ip), vehicle: Klucel (hydroxypropylcellulose) (HPC) 94 % of control | dose: 400.0 mg/kg/injection, schedule: Q01DX001 (ip), vehicle: Klucel (hydroxypropylcellulose) (HPC) 87 % of control

CCN1CCC(c2ccccc2)(c2ccccc2)C1=N
inactive: dose: 75.0 mg/kg/injection, schedule: Q01DX001 (ip), vehicle: carboxymethylcellulose (CMC) 89 % of control

C/C(=N\Nc1ccccc1)C(C)C
inactive: dose: 75.0 mg/kg/injection, schedule: Q04DX003 (ip), vehicle: Klucel (hydroxypropylcellulose) (HPC) 118 % of control | dose: 150.0 mg/kg/injection, schedule: Q04DX003 (ip), vehicle: Klucel (hydroxypropylcellulose) (HPC) 94 % of control | dose: 300.0 mg/kg/injection, schedule: Q04DX003 (ip), vehicle: Klucel (hydroxypropylcellulose) (HPC) 96 % of control

CN1CCC(O)(c2ccccc2)C(C(=O)c2ccccc2)C1 (stereo unspecified)
inactive: [12] 101 % of control | [13] 93 % of control

BrCC(CCCc1ccccc1)CCc1ccccc1 (stereo unspecified)
inactive: [21] 93 % of control | [22] 90 % of control | [23] 101 % of control

Nc1cncnc1
inactive: [11] 112 % of control | [12] 107 % of control | [13] 98 % of control | [14] 102 % of control

O=C(O)c1cc(C(=O)O)cc([N+](=O)[O-])c1
inactive: [24] 93 % of control | [25] 91 % of control | [8] 95 % of control | [9] 95 % of control

CC(O)CNC(=O)C(C)O (stereo unspecified)
inactive: [8] 98 % of control | [9] 97 % of control | [10] 102 % of control

COc1cc2c(cc1OC)C(Cc1ccc(N)cc1)N(C)CC2 (stereo unspecified)
inactive: [1] 87 % of control | [2] 91 % of control | [3] 94 % of control | [4] 98 % of control

O=[N+]([O-])c1cc([N+](=O)[O-])c(Nc2cccc3ccccc23)c([N+](=O)[O-])c1
inactive: [15] 94 % of control | [16] 99 % of control | [17] 100 % of control | [18] 100 % of control | [19] 102 % of control | dose: 400.0 mg/kg/injection, schedule: Q04DX003 (ip), vehicle: Klucel (hydroxypropylcellulose) (HPC) 102 % of control
